“Also recorded” adds a separate entry of the source.
How the values were obtained:
[1] = system: DUX4 mRNA in FSHD fibroblasts; test: DUX4 mRNA in FSHD fibroblasts with beta-estradiol inducible MyoD, cycloheximide addition and washout; type: cell-based, human; details: MyoD induction, 38 hours in differentiation conditions, chx added, FIG. 24
Source text: The 3-prime untranslated region (UTR) of the DUX4 mRNA has an unusual exon-intron structure. The translational stop codon is in the first exon, whereas the polyadenylation sequence is in the third exon. The separation of the translational stop codon from the polyadenylation site by two exon-intron junctions would be predicted to make this mRNA subject to translation dependent nonsense mediated decay.
FSHD fibroblasts expressing low amounts of DUX4 mRNA were stably transduced with a beta-estradiol inducible MyoD so that addition of beta-estradiol will convert them to skeletal muscle, which after 96 hours of induction increases the steady-state levels of the DUX4 mRNA and activates expression of the MyoD target Mgn (compare lanes 1 and 2). […] Washout of the chx results in the rapid loss of the DUX4 mRNA, disappearing between 2 and 8 hrs of washout. The loss of DUX4 mRNA is associated with its translation since the DUX4 target PRAME 1 is induced as the DUX4 mRNA disappears.

[2] = system: DUX4-fl mRNA in FSHD muscle cells; test: DUX4-fl mRNA in FSHD muscle cells treated with MAO inhibitors (RT-PCR); type: cell-based, human
Source text: The monamine oxidase inhibitor pargyline has been reported to inhibit the activity of the LSD1 histone demethylase that demethylates H3K9.
FIG. 22 graphically illustrates that pargyline decreases the amount of DUX4 mRNA in FSHD muscle cells.
Middle panel is a no RT control and bottom panel is a GAPDH loading control.

| SMILES | DUX4 mRNA level [1] | abundance of DUX4-fl mRNA ([2]; FSHD muscle cells expressing endogenous DUX4-fl mRNA, quantitative RT-PCR, FIG. 22) | amount of DUX4-fl mRNA ([2]; cultured FSHD muscle cells differentiated 48 hours in differentiation medium with varying amounts of pargyline, RT-PCR, FIG. 23) |
| --- | --- | --- | --- |
| C[C@@H]1C[C@@H]([C@H](O)CC2CC(=O)NC(=O)C2)C(=O)[C@@H](C)C1 [cycloheximide] | accumulation of the DUX4 mRNA; also recorded: significant increase in DUX4 mRNA |  |  |
| C#CCN(C)Cc1ccccc1 [pargyline] |  | suppresses the expression of DUX4 mRNA; also recorded: decreases the abundance of DUX4-fl mRNA in a dose-dependent manner | dose-dependent inhibition of DUX4 mRNA expression |
